Test results: patent publication US9163018B2, “Method of treatment of age-related macular degeneration (AMD)” (Prana Biotechnology Limited, priority 2006, dated 2015)
pEC50, pIC50: −log10 of the molar value.

How the values were obtained:
[1] = Mice plasma concentration after oral dose; format: in vivo; conditions: for Mice plasma concentration: 30 min to 4 h after single or repeat oral dose of 30 mg/kg
[2] = system: primary cortical neuronal cultured cells; assay: Test compound cytotoxicity, MTS assay, primary cortical neuronal cultures; format: cell-based, mouse; conditions: for Cytotox (% viable) Neuronal cells at 1 μM: 1 μM test compound; for Cytotox (% viable) Neuronal cells at 10 μM: 10 μM test compound
In short: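 Primary cortical neurons were cultured five days in Neurobasal/B27, then exposed on day six to compounds (from 2.5 mM DMSO stocks) in medium minus antioxidants, in triplicate for 4 days at 37° C. Viability was measured by MTS, 2 h at 37° C, absorbance at 560 nm.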

[3] = molecular target: T1, Abeta:Zn (25:50 μM) Synthetic Aggregations (Homo sapiens, UniProt P05067); assay: Disaggregation of Abeta:Zn synthetic aggregates (ThT fluorescence); format: biochemical; conditions: for Disaggregation % Aggregate reduction at 5 μM: 5 μM test compound; for pEC50: Abeta:Zn 25:50 μM aggregates
T1 construct: PB Compound Mediated Dissolution of Aggregated Abeta 1-42; purchased Keck Laboratory, Yale University School of Medicine
Description: PB Compound Mediated Dissolution of Aggregated Abeta 1-42
Abeta1-42, is available from the Keck Laboratory, Yale University School of Medicine. PBS (pH 6.6): Sigma Cat# D-8662. Zn(ZnCl2): BDH Cat#100884E. (Dissolved in water in 1 mM concentration) DMSO: Ajax Cat#2225. Thioflavin T: Sigma Cat# T-3516. (Dissolved in water in 1 mM concentration)
By way of example of an amyloid composition, Abeta is dissolved in distilled water and peptide concentration is assessed by measured absorption at 214 nm in UV spectrometer. An aggregation reactive mixture (per one concentration of one testing compound) is set us as follows: Abeta: 25 μM, ZnCl2 50 μM, ThT 50 μM, PBS to make up to 500 μl. The tube is wrapped with foil and incubated at 37 degrees by rotation for 24 hours. A serial dilution of each test compound is made up in DMSO, for example: 100 μM, 500 μM, 1000 μM, 2500 μM and 5000 μM. The final concentrations are 1, 5, 10, 25 and 50 μM, 5 μl of each of these compounds is placed in a centrifuge tube and 5 μl of DMSO is added to both negative and positive control tubes. 495 μl of aggregates (after 24 hours incubation) is added to the centrifuge tube. The negative control is PBS plus ZnCl2 and ThT and DMSO. The positive control is aggregates plus DMSO. The tubes are incubated at 37 degrees for further 2 hours with rotation. Samples are measured for ThT fluorescence using an LS55 (Perkin Elmer) fluorimeter in a cuvette (500 μl volume). The excitation wavelength is 450 nm and the emission wavelength is 480 nm. Data are analyzed using graph pad prism program. The tested compounds included so called “PB” compounds.

[4] = Toxicity, visual observations in mice; conditions: 30 mg/kg; duration and visual observations
Aβ 1-42 = molecular target: T2, Aβ 1-42 (Homo sapiens, UniProt P05067); assay: Fluorometric H2O2 assay (inhibition of Abeta H2O2 production); format: biochemical; conditions: concentration required to inhibit 50% of Abeta H2O2 production; read-out: H2O2 IC50
T2 construct: The reaction solutions contained Aβ 1-42 at concentrations
In short: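 Reactions in PBS pH 7.4 at 37 C for 60 min, containing Aβ, copper and test compound. H2O2 output read as fluorescence of HRP-coupled deacetylated DCF. Fluorescence converted to H2O2 concentration via H2O2 standards.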

[5] = system: Abeta in extract of post-mortem human AD brain tissue; assay: BAS: human brain amyloid solubilization assay; format: biochemical; conditions: max effect across the concentration range, referenced to baseline PBS
Description: Assay 5. Human Brain Amyloid Solubilization Assay
This assay was performed in order to assess the ability of a test compound to mobilise Aβ, as an example form of amyloid, from the insoluble to the soluble phase of an extract of tissue from post mortem human AD brain.
Up to 0.5 g of plaque-bearing cortex without meninges was homogenized using a DIAX 900 homogenizer (Hendolph and Co, Kelheim, Germany) or other suitable device for three 30-second periods at full speed in 2 ml of ice-cold phosphate-buffered saline, pH 7.4. To obtain the phosphate-buffered saline-extractable fraction, the homogenate was centrifuged at 100,000×g for 30 min and the supernatant removed. Alternatively, the tissue was freeze dried then pulverized to form a powder which was then weighed out into aliquots for extraction as above. Supernatant, either freeze-dried and resuspended or in unconcentrated form, was dissolved in 200 μl of Tris-Tricine sodium dodecyl sulfate (SDS) sample buffer pH 8.3 containing 8% SDS, 10% 2-mercaptoethanol. Aliquots (10 μl) were then boiled for 10 minutes before SDS-polyacrylamide gel electrophoresis. The insoluble fraction of the cortical samples was obtained by resuspending the initial pelleted sample in 1 ml of phosphate-buffered saline, A 50-μl aliquot of this suspension was then boiled in […] of sample buffer as above.
Tris-Tricine polyacrylamide gel electrophoresis was performed by loading appropriately diluted samples on to 10% to 20% gradient gels (Novex, San Diego, Calif.) followed by transfer on to 0.2-μm nitrocellulose membrane (Bio-Rad, Hercules, Calif.). Aβ was detected by using monoclonal antibody W02, which detects residues 5 through 8, […] (or another suitable antibody) in conjunction with horseradish peroxidase-conjugated rabbit anti-mouse IgG (Dako, Denmark), and visualized by using enhanced chemiluminescence (eg ECL; Amersham Life Science, Buckinghamshire, UK). Each gel included three lanes containing 0.5, 1, and 2 ng of synthetic Aβ40 (Keck Laboratory, Yale University, New Haven, Conn.) as reference standards.
Blot films were scanned by using a suitable imaging system such as the UVP gel documentation system, and densitometry performed using suitable software, eg UVP Labworks. The dynamic range of the film/scanner was determined by using a step tablet (No. 911ST600, Kodak, Rochester N.Y.), a calibrated film exposed by the manufacturer to provided steps of known increasing intensity. The quantifiable range of signal intensity for densitometric analysis of the mono- and dimeric Aβ bands was based on the comparison with a curve obtained by scanning and densitometry of the step tablet.
All samples were analyzed at least twice, and gel loadings and dilutions were adjusted to fit within the quantifiable region of the standard curve. The proportion of ‘soluble’ to ‘insoluble’ Aβ may be used to determine the efficiency of extraction of a test compound compared with the efficiency of a known compound. The insoluble Aβ being comprised of the pelletable fraction derived from the insoluble amyloid plaque from the above cortical samples and the soluble fraction comprising monomeric and/or oligomeric soluble Aβ.

[6] = system: M17 human neuroblastoma cells; assay: Cytotoxicity, M17 human neuroblastoma cells; format: cell-based; conditions: for Cytotox (% viable) M17 cells at 1 μM: 1 μM test compound; for Cytotox (% viable) M17 cells at 10 μM: 10 μM test compound
Description: Assay 3. MTS Assay for Cell Viability
Cell viability is determined using the MTS assay. Culture medium is replaced with fresh neurobasal medium plus B27 supplements minus antioxidants. 1/10th volume MTS solution (Cell Titre 96 Aqueous One, Promega Corporation) and incubated at 37° C., 2 hrs. 200 microliter aliquots are measured with a spectrophotometer at 560 nm.

T2 sequence (P05067 672-713 limits assumed): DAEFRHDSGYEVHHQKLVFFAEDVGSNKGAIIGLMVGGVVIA
T1 sequence (P05067 672-713 limits assumed): as above

Q: What does the source list for `CCn1nccc1-n1cnc2c(O)c(Cl)cc(Cl)c2c1=O` [PB 1088]?
A: Mice plasma concentration [1]: Up to 3896 ng/ mL ng/mL; Cytotox (% viable) Neuronal cells at 1 μM [2]: 102%; Cytotox (% viable) Neuronal cells at 10 μM [2]: 94%; Disaggregation % Aggregate reduction at 5 μM [3]: 16.4%; pEC50 [3]: < 4.70; Toxicity at 30 mg/kg [4]: 10 days, none

Q: With `Oc1cccc2ccc(-c3ccccn3)nc12` [PB 1006] as the molecule, how does the pIC50 (Aβ 1-42) read?
A: 6.28

Q: What about the “Cytotox (% viable) Neuronal cells at 1 μM” value [2] of the same molecule?
A: 107%

Q: What about the “Cytotox (% viable) Neuronal cells at 10 μM” value [2] of the same molecule?
A: 75%

Q: And the BAS max effect [5]?
A: 463%

Q: And the “Disaggregation % Aggregate reduction at 5 μM” value [3]?
A: 49.5%

Q: And the pEC50 [3]?
A: 5.28

Q: Which Mice plasma concentration [1] does the source give for `CCCn1cnc2c(O)c(I)ccc2c1=O` [PB 1119] here?
A: Up to 1096 ng/ mL ng/mL

Q: What about the pIC50 (Aβ 1-42) of the same molecule?
A: 6.55

Q: What about the “Disaggregation % Aggregate reduction at 5 μM” value [3] of the same molecule?
A: 51.5%

Q: What about the pEC50 [3] of the same molecule?
A: 5.57

Q: And the “Toxicity at 30 mg/kg” value [4]?
A: 10 days, none

Q: For `O=c1c2c(Cl)cc(Cl)c(O)c2ncn1CCc1ccccn1` [PB 1091], which Mice plasma concentration [1] is on record?
A: Up to 59 ng/ mL ng/mL

Q: And the “Cytotox (% viable) Neuronal cells at 1 μM” value [2]?
A: 100%

Q: And the “Cytotox (% viable) Neuronal cells at 10 μM” value [2]?
A: 92%

Q: And the “Disaggregation % Aggregate reduction at 5 μM” value [3]?
A: 23.4%

Q: And the pEC50 [3]?
A: < 4.70

Q: What about the “Toxicity at 30 mg/kg” value [4] of the same molecule?
A: 10 days, none

Q: With `O=c1c(-c2ccc(Cl)cc2)cnc2c(O)c(I)ccn12` [PB 1063] as the molecule, how does the Mice plasma concentration [1] read?
A: Up to 450 ng/ mL in mice ng/mL

Q: What about the “Cytotox (% viable) Neuronal cells at 1 μM” value [2] of the same molecule?
A: 41%

Q: What about the “Cytotox (% viable) Neuronal cells at 10 μM” value [2] of the same molecule?
A: 33%

Q: What about the “Disaggregation % Aggregate reduction at 5 μM” value [3] of the same molecule?
A: 40.5%

Q: What about the pEC50 [3] of the same molecule?
A: 4.71

Q: And the “Toxicity at 30 mg/kg” value [4]?
A: 10 days, mild toxic signs

Q: Which Mice plasma concentration [1] does the source give for `Cc1ccc(-n2cnc3c(O)c(Cl)cc(Cl)c3c2=O)nc1` [PB 1089] here?
A: Up to 39 ng/ mL ng/mL

Q: And the “Cytotox (% viable) Neuronal cells at 1 μM” value [2]?
A: 96%

Q: And the “Cytotox (% viable) Neuronal cells at 10 μM” value [2]?
A: 83%

Q: And the “Disaggregation % Aggregate reduction at 5 μM” value [3]?
A: 16.4%

Q: And the pEC50 [3]?
A: < 4.70

Q: What about the “Toxicity at 30 mg/kg” value [4] of the same molecule?
A: 10 days, none

Q: For `CCCCc1cnc2c(O)cccn2c1=O` [PB 1144], which “Cytotox (% viable) M17 cells at 1 μM” value [6] is on record?
A: 73.6%

Q: What about the “Cytotox (% viable) M17 cells at 10 μM” value [6] of the same molecule?
A: 37%

Q: What about the pIC50 (Aβ 1-42) of the same molecule?
A: 6.49

Q: And the “Disaggregation % Aggregate reduction at 5 μM” value [3]?
A: 15.5%

Q: And the pEC50 [3]?
A: 5.04

Q: What about the “Toxicity at 30 mg/kg” value [4] of the same molecule?
A: 10 days, none

Q: With `NCc1ccc2cccc(O)c2n1` [PB 968] as the molecule, how does the pIC50 (Aβ 1-42) read?
A: 6.59

Q: And the “Cytotox (% viable) Neuronal cells at 1 μM” value [2]?
A: 101%

Q: What about the “Cytotox (% viable) Neuronal cells at 10 μM” value [2] of the same molecule?
A: 97%

Q: And the BAS max effect [5]?
A: 390%

Q: What about the “Disaggregation % Aggregate reduction at 5 μM” value [3] of the same molecule?
A: 31.6%

Q: And the pEC50 [3]?
A: 4.79

Q: With `Cc1ccccc1-c1cc(I)c(O)c2ncccc12` [PB 861] as the molecule, how does the pIC50 (Aβ 1-42) read?
A: > 6.04

Q: And the “Cytotox (% viable) Neuronal cells at 1 μM” value [2]?
A: 99%

Q: And the “Cytotox (% viable) Neuronal cells at 10 μM” value [2]?
A: 38%

Q: What about the BAS max effect [5] of the same molecule?
A: 439%

Q: And the “Disaggregation % Aggregate reduction at 5 μM” value [3]?
A: 31.4%

Q: Which “Mice plasma concentration at 120 mg/kg” value ([1]; 120 mg/kg) does the source give for `CCc1c(O)c(O)cc[n+]1CC.[Cl-]` [PB 1270] here?
A: ≤ 4455 ng/mL

Q: And the Mice plasma concentration [1]?
A: ≤ 493.7 ng/mL

Q: What about the “Cytotox (% viable) M17 cells at 1 μM” value [6] of the same molecule?
A: 102.8%

Q: What about the “Cytotox (% viable) M17 cells at 10 μM” value [6] of the same molecule?
A: 108.3%

Q: What about the “Toxicity at 30 mg/kg” value [4] of the same molecule?
A: 10 days, none
